Patent US8952157B2, “Apoptosis-inducing agents for the treatment of cancer and immune and autoimmune diseases” (AbbVie Inc., priority 2008, dated 2015)

Target: GST-Bcl-2 (Homo sapiens (Human), UniProt P10415)
Assay: Time Resolved-Fluorescence Resonance Energy Transfer (TR-FRET) Bcl-2 binding assay
Settings: not given
In short: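 Competition TR-FRET: GST-Bcl-2 with fluorescent Bak peptide probe and Tb-anti-GST antibody, compounds serially diluted from 50 μM (2× start, 10% DMSO).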

Chain of GST-Bcl-2 (P10415 whole entry): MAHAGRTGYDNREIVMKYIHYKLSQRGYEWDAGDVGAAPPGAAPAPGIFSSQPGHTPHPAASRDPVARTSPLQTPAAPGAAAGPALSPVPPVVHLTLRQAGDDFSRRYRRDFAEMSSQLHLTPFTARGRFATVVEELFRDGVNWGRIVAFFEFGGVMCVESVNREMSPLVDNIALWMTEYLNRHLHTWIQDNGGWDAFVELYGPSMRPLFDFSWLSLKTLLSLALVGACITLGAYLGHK

| SMILES | Ki |
| --- | --- |
| CC1(C)CCC(CN2CCN(c3ccc(C(=O)NS(=O)(=O)c4ccc(N[C@H]5CC[C@H](N6CCOCC6)CC5)c([N+](=O)[O-])c4)c(Oc4cnc(N)c(Cl)c4)c3)CC2)=C(c2ccc(Cl)cc2)C1 [Example 324, Trans-2-[(6-amino-5-chloropyridin-3-yl)oxy]-4-(4-{[2-(4-chlorophenyl)-4,4-dimethylcyclohex-1-en-1-yl]methyl}piperazin-1-yl)-N-({4-[(4-morpholin-4-ylcyclohexyl)amino]-3-nitrophenyl}sulfonyl)benzamide] | < 0.01 nM |
| CC1(C)CCC(CN2CCN(c3ccc(C(=O)NS(=O)(=O)c4ccc(N[C@H]5CC[C@H](NC6CCOCC6)CC5)c([N+](=O)[O-])c4)c(Oc4cc5cc[nH]c5cc4F)c3)CC2)=C(c2ccc(Cl)cc2)C1 [Example 335, Trans-4-(4-{[2-(4-chlorophenyl)-4,4-dimethylcyclohex-1-en-1-yl]methyl}piperazin-1-yl)-2-[(6-fluoro-1H-indol-5-yl)oxy]-N-[(3-nitro-4-{[4-(tetrahydro-2H-pyran-4-ylamino)cyclohexyl]amino}phenyl)sulfonyl]benzamide] | < 0.01 nM |

Same assay, conditions: GST-Bcl-2 1 nM, F-Bak peptide probe 100 nM, Tb-anti-GST antibody 1 nM; Ki by Wang's equation

| SMILES | Ki |
| --- | --- |
| CN1CCC(Nc2ccc(S(=O)(=O)NC(=O)c3ccc(N4CCN(CC5=C(c6ccc(Cl)cc6)CC(C)(C)CC5)CC4)cc3Oc3ccccc3Cl)cc2[N+](=O)[O-])CC1 [Example 34, 2-(2-chlorophenoxy)-4-(4-((2-(4-chlorophenyl)-4,4-dimethylcyclohex-1-en-1-yl)methyl)piperazin-1-yl)-N-((4-((1-methylpiperidin-4-yl)amino)-3-nitrophenyl)sulfonyl)benzamide] | 0.049 nM |
| CC1(C)CCC(CN2CCN(c3ccc(C(=O)NS(=O)(=O)c4ccc(NCC5CCOCC5)c([N+](=O)[O-])c4)c(Oc4cc(N)nc(N)c4)c3)CC2)=C(c2ccc(Cl)cc2)C1 [Example 380, 4-(4-{[2-(4-chlorophenyl)-4,4-dimethylcyclohex-1-en-1-yl]methyl}piperazin-1-yl)-2-[(2,6-diaminopyridin-4-yl)oxy]-N-({3-nitro-4-[(tetrahydro-2H-pyran-4-ylmethyl)amino]phenyl}sulfonyl)benzamide] | 8.27 nM |
| CC1(C)CCC(CN2CCN(c3ccc(C(=O)NS(=O)(=O)c4ccc(NC5CCN(C6CC6)CC5)c([N+](=O)[O-])c4)c(Oc4cccc(F)c4)c3)CC2)=C(c2ccc(Cl)cc2)C1 [Example 132, 4-(4-{[2-(4-chlorophenyl)-4,4-dimethylcyclohex-1-en-1-yl]methyl}piperazin-1-yl)-N-({4-[(1-cyclopropylpiperidin-4-yl)amino]-3-nitrophenyl}sulfonyl)-2-(3-fluorophenoxy)benzamide] | 0.211 nM |
| CC1(C)CCC(CN2CCN(c3ccc(C(=O)NS(=O)(=O)c4cnc(OC[C@@H]5CCN(CC(F)F)C5)c(Cl)c4)c(Oc4cnc(N)c(Cl)c4)c3)CC2)=C(c2ccc(Cl)cc2)C1 [Example 400, 2-[(6-amino-5-chloropyridin-3-yl)oxy]-N-[(5-chloro-6-{[(3R)-1-(2,2-difluoroethyl)pyrrolidin-3-yl]methoxy}pyridin-3-yl)sulfonyl]-4-(4-{[2-(4-chlorophenyl)-4,4-dimethylcyclohex-1-en-1-yl]methyl}piperazin-1-yl)benzamide] | 0.082 nM |
| O=C1CCc2c(cccc2Oc2cc(N3CCN(Cc4ccccc4-c4ccc(Cl)cc4)CC3)ccc2C(=O)NS(=O)(=O)c2ccc(NCC3CCOCC3)c([N+](=O)[O-])c2)N1 [Example 95, 4-(4-((4′-chloro-1,1′-biphenyl-2-yl)methyl)piperazin-1-yl)-N-((3-nitro-4-((tetrahydro-2H-pyran-4-ylmethyl)amino)phenyl)sulfonyl)-2-((2-oxo-1,2,3,4-tetrahydroquinolin-5-yl)oxy)benzamide] | 0.428 nM |
| COc1cccc(Oc2cc(N3CCN(CC4=C(c5ccc(Cl)cc5)CC(C)(C)CC4)CC3)ccc2C(=O)NS(=O)(=O)c2ccc(NC3CCN(C)CC3)c([N+](=O)[O-])c2)c1 [Example 166, 4-(4-{[2-(4-chlorophenyl)-4,4-dimethylcyclohex-1-en-1-yl]methyl}piperazin-1-yl)-2-(3-methoxyphenoxy)-N-({4-[(1-methylpiperidin-4-yl)amino]-3-nitrophenyl}sulfonyl)benzamide] | 0.082 nM |
| CN1CCC(Nc2ccc(S(=O)(=O)NC(=O)c3ccc(N4CCN(CC5=C(c6ccc(Cl)cc6)CC(C)(C)CC5)CC4)cc3Oc3cccc(Br)c3)cc2[N+](=O)[O-])CC1 [Example 46, 2-(3-bromophenoxy)-4-(4-((2-(4-chlorophenyl)-4,4-dimethylcyclohex-1-en-1-yl)methyl)piperazin-1-yl)-N-((4-((1-methylpiperidin-4-yl)amino)-3-nitrophenyl)sulfonyl)benzamide] | 0.047 nM |
| CN1CCC(Nc2ccc(S(=O)(=O)NC(=O)c3ccc(N4CCN(CC5=C(c6ccc(Cl)cc6)CC(C)(C)CC5)CC4)cc3Oc3cccc(Cl)c3)cc2S(=O)(=O)C(F)(F)F)CC1 [Example 131, 2-(3-chlorophenoxy)-4-(4-{[2-(4-chlorophenyl)-4,4-dimethylcyclohex-1-en-1-yl]methyl}piperazin-1-yl)-N-({4-[(1-methylpiperidin-4-yl)amino]-3-[(trifluoromethyl)sulfonyl]phenyl}sulfonyl)benzamide] | 0.066 nM |
| C#Cc1cc(S(=O)(=O)NC(=O)c2ccc(N3CCN(CC4=C(c5ccc(Cl)cc5)CC(C)(C)CC4)CC3)cc2Oc2cc3cc[nH]c3cc2F)cnc1OCC1CCOCC1 [Example 322, 4-(4-{[2-(4-chlorophenyl)-4,4-dimethylcyclohex-1-en-1-yl]methyl}piperazin-1-yl)-N-{[5-ethynyl-6-(tetrahydro-2H-pyran-4-ylmethoxy)pyridin-3-yl]sulfonyl}-2-[(6-fluoro-1H-indol-5-yl)oxy]benzamide] | 4.53 nM |
| CN1CCC(CNc2ccc(S(=O)(=O)NC(=O)c3ccc(N4CCN(CC5=C(c6ccc(Cl)cc6)CC(C)(C)CC5)CC4)cc3Oc3cccc(Cl)c3)cc2[N+](=O)[O-])CC1 [Example 155, 2-(3-chlorophenoxy)-4-(4-{[2-(4-chlorophenyl)-4,4-dimethylcyclohex-1-en-1-yl]methyl}piperazin-1-yl)-N-[(4-{[(1-methylpiperidin-4-yl)methyl]amino}-3-nitrophenyl)sulfonyl]benzamide] | 0.062 nM |
| CN1CCC(Nc2ccc(S(=O)(=O)NC(=O)c3ccc(N4CCN(CC5=C(c6ccc(Cl)cc6)CC(C)(C)CC5)CC4)cc3Oc3cccc4c3CC(=O)N4)cc2[N+](=O)[O-])CC1 [Example 288, 4-(4-{[2-(4-chlorophenyl)-4,4-dimethylcyclohex-1-en-1-yl]methyl}piperazin-1-yl)-N-({4-[(1-methylpiperidin-4-yl)amino]-3-nitrophenyl}sulfonyl)-2-[(2-oxo-2,3-dihydro-1H-indol-4-yl)oxy]benzamide] | 0.017 nM |
| CC1(C)CCC(CN2CCN(c3ccc(C(=O)NS(=O)(=O)c4cnc(OCC5(F)CCOCC5)c(Cl)c4)c(Oc4cc5cc[nH]c5cc4F)c3)CC2)=C(c2ccc(Cl)cc2)C1 [Example 326, N-({5-chloro-6-[(4-fluorotetrahydro-2H-pyran-4-yl)methoxy]pyridin-3-yl}sulfonyl)-4-(4-{[2-(4-chlorophenyl)-4,4-dimethylcyclohex-1-en-1-yl]methyl}piperazin-1-yl)-2-[(6-fluoro-1H-indol-5-yl)oxy]benzamide] | 0.037 nM |
| CC1(C)CCC(c2ccc(Cl)cc2)=C(CN2CCN(c3ccc(C(=O)NS(=O)(=O)c4ccc(NCC5CCOCC5)c([N+](=O)[O-])c4)c(Oc4cc5cc[nH]c5cc4F)c3)CC2)C1 [Example 262, 4-(4-{[2-(4-chlorophenyl)-5,5-dimethylcyclohex-1-en-1-yl]methyl}piperazin-1-yl)-2-[(6-fluoro-1H-indol-5-yl)oxy]-N-({3-nitro-4-[(tetrahydro-2H-pyran-4-ylmethyl)amino]phenyl}sulfonyl)benzamide] | 0.276 nM |
| CC1(C)CCC(CN2CCN(c3ccc(C(=O)NS(=O)(=O)c4ccc(NCC5CCOC5)c([N+](=O)[O-])c4)c(Oc4cnc(N)c(Cl)c4)c3)CC2)=C(c2ccc(Cl)cc2)C1 (stereo not shown) [Example 389, 2-[(6-amino-5-chloropyridin-3-yl)oxy]-4-(4-{[2-(4-chlorophenyl)-4,4-dimethylcyclohex-1-en-1-yl]methyl}piperazin-1-yl)-N-({3-nitro-4-[(tetrahydrofuran-3-ylmethyl)amino]phenyl}sulfonyl)benzamide] | < 0.01 nM |
| CN1CCC(Nc2ccc(S(=O)(=O)NC(=O)c3ccc(N4CCN(CC5=C(c6ccc(Cl)cc6)CC(C)(C)CC5)CC4)cc3Oc3cccc(O)c3Cl)cc2[N+](=O)[O-])CC1 [Example 171, 2-(2-chloro-3-hydroxyphenoxy)-4-(4-{[2-(4-chlorophenyl)-4,4-dimethylcyclohex-1-en-1-yl]methyl}piperazin-1-yl)-N-({4-[(1-methylpiperidin-4-yl)amino]-3-nitrophenyl}sulfonyl)benzamide] | 0.066 nM |
| O=C(NS(=O)(=O)c1ccc(NCC2CCOCC2)c([N+](=O)[O-])c1)c1ccc(N2CCN(Cc3ccccc3-c3ccc(Cl)cc3)CC2)cc1Oc1ccc(OCc2ccccc2)cc1 [Example 88, 2-(4-(benzyloxy)phenoxy)-4-(4-((4′-chloro-1,1′-biphenyl-2-yl)methyl)piperazin-1-yl)-N-((3-nitro-4-((tetrahydro-2H-pyran-4-ylmethyl)amino)phenyl)sulfonyl)benzamide] | > 1200 nM |
| CN1CCC(Nc2ccc(S(=O)(=O)NC(=O)c3ccc(N4CCN(CC5=C(c6ccc(Cl)cc6)CC(C)(C)CC5)CC4)cc3OCc3csc(NC(=O)OC(C)(C)C)n3)cc2[N+](=O)[O-])CC1 [Example 222, tert-butyl 4-[(5-(4-{[2-(4-chlorophenyl)-4,4-dimethylcyclohex-1-en-1-yl]methyl}piperazin-1-yl)-2-{[({4-[(1-methylpiperidin-4-yl)amino]-3-nitrophenyl}sulfonyl)amino]carbonyl}phenoxy)methyl]-1,3-thiazol-2-ylcarbamate] | > 1200 nM |
